Data on two compounds can be found in patent US20150366847A1, “COMBINATION OF GERANYLGERANYLACETONE AND IBUDILAST AND METHODS OF USING SAME” (MediciNova, Inc., priority 2014, published 2015).

Assay [1] concerns heat shock protein 70 (HSP70). Particulars: mice subjected to an occlusion of the middle cerebral artery; cited from earlier work.
Assay [2] concerns animal model for Parkinson's disease. Description: Rat model of Parkinson's disease, brain mass. It is filed as in vivo.
In the next assay the test system is animal model for ALS. Put plainly: Rat model of ALS, brain mass. Type of assay: in vivo.

On to `CC(=O)CCC=C(C)CC/C=C(\C)CC/C=C(\C)CCC=C(C)C` (mixture of isomers) [GGA, Geranylgeranyl acetone], for which the “induction of heat shock protein 70 (HSP70)” value in assay [1] is on record as “inducer of heat shock protein 70 (HSP70)”.

Take `CC(C)C(=O)c1c(C(C)C)nn2ccccc12` [ibudilast, 3-isobutyryl-2-isopropylpyrazolo[1,5-a]pyridine]: the brain mass result (in assay [2]; in the assay with animal model for ALS) was “increase brain mass” in each case.
